Tests used:
human ENaCα mRNA = assay: ENaCα mRNA knockdown and EC50 in human normal bronchial epithelial cells (NHBEs); assay type: cell-based; details: 48 hrs post transfection, n = 3 donors; for EC50: nine point dose range 0.01-100 nM
Protocol: Human Bronchial Epithelial cells (NHBE cells) obtained from Lonza (Cat. No. CC-2540) were grown at 37 deg in the presence of 5% CO2 and cultured in BEBM basal medium (Lonza, Cat. No. CC-3171) on Biocoat Collagenl coated flasks (Becton Dickinson).
mRNA Knockdown and EC50 in NHBEs: Cells were plated in collagen 1 coated plates and cultured in appropriate culture media. The cells were cultured for 24 hours after plating at 37 deg in the presence of 5% CO2. siNAs were diluted in OptiMEM 1 to 1 uM and the delivery lipid GSK212357A to 25 ug/ml. For formulation of the siNAs equal volumes of the diluted siNA and delivery lipid were combined and incubated for 20 minutes at room temperature. Cells were meanwhile trypsinised and resuspended in antibiotic free BEBM media at 150,000 cells/ml. 20 ul of the formulated siNA and 80 ul of BEBM media was added per well of a 96 well plate (6 replicates/data point/siRNA concentration) so as to give a nine point dose range of the siRNAs (100 nM, 30 nM, 10 nM, 3 nM, 1 nM, 0.3 nM, 0.1 nM, 0.03 nM, 0.01 nM). The time of incubation with the GSK212357A-siNA complexes were 48 hours with one change of media at 24 hours.
RNA Isolation 96 well Plate: Total RNA was isolated from the cells in the 96-well plate format using the Automated SV96 Total RNA Isolation System (Promega) according to the manufacturer's instructions. The Biomek 2000 Laboratory Automation Workstation (Beckman Coulter) was used to apply the transfected cell lysates to a silica membrane. RNase-Free DNase I was then applied directly to the silica membrane to digest contaminating genomic DNA. The bound total RNA was further purified from contaminating salts, proteins and cellular impurities by simple washing steps. Finally, total RNA was eluted from the membrane by the addition of Nuclease-Free Water.
(§1) Quantitative RT-PCR (TaqMan): A series of probes and primers were used for the detection of mRNA transcripts of ENaCα, OAS1, IL8 and GAPDH (as control/normalisation) in the human cell lines. The assays were performed on an ABI 7900HT instrument according to the manufacturer's instructions. Primer Probe sets used GAPDH Forward 5′-[…]-3 (SEQ ID NO: 128), ‘Reverse 5’-GGGCCATCCACAGTCTTCT-3′ (SEQ ID NO: 129), Probe 5′ d FAM-[…]-TAMRA 3′ (SEQ ID NO: 130), ENaCa Forward 5′-[…]-3′ (SEQ ID NO: 131), Reverse 5′-[…]-3′ (SEQ ID NO: 132), Probe 5′ d FAM-[…]-TAMRA 3′ (SEQ ID NO: 133), OAS1 Forward 5′-[…]-3′ (SEQ ID NO: 134), Reverse 5′-[…]-3′ (SEQ ID NO: 135), Probe 5′ d FAM-[…]-TAMRA 3′ (SEQ ID NO: 136), IL8 Forward 5′-CTGGCCGTGGCTCTCTTG-3′ (SEQ ID NO: 137), Reverse 5′-[…]-3′ (SEQ ID NO: 138), Probe 5′ d FAM-[…]-TAMRA 3′ (SEQ ID NO: 139).
TaqMan: Critical threshold values (Ct) were converted to copy numbers corresponding to the particular gene analysed in each well of the 384 well plate. Six identical wells were prepared in each plate for a given treatment. […] Determination of the percentage coefficient of variation (CV) (% C.V.=[standard deviation/average]*100) allowed the omitting of wells whose value was an outlier (so that % C.V.<25). Relative abundance (aka relative expression) of a gene was determined by dividing the mean copy number of that gene with its GAPDH counterpart in that particular sample.
EC50 values were calculated from the data using sigma plot. All calculations of the efficacy and potency of the siNAs were done relative to the non-targeting control siNA.

ENaC = assay: FLIPR assay of sodium transport in recombinant HEK cells over expressing ENaC; assay type: cell-based, human; details: FLIPR, n = 6, mean of 3 independent experiments
Protocol: (§2) Recombinant HEK293 cell line (expressing ENaC beta & gamma) SCNN1B (P618AY620L)+SCNN1G (P624stop) #24. were grown at 37 deg in the presence of CO2 and were cultured in M1 medium M1+0.5 mg/ml geneticin and 0.2 mg/ml hygromycin.
(§3) Functional Effects on ENaC via FLIPR in Cells Over Expressing ENaCa: A reverse transfection methodology was used to transfect the HEK recombinant cell line. 5 ul of siRNA (diluted in Optimem to the appropriate concentration) was mixed with 5 ul of the Gemini lipid transfection reagent diluted in Optimem in 384 well non-coated FLIPR plate. Plates were incubated at room temperature for 20 minutes to allow complex formation. Cells were harvested, spun down, diluted to 3×10^5/ml and plated out at 40 ul/well (12K/well) in 384 well plate format containing the transfection complex. The plates were incubated overnight for 20 hours. The cells were then transduced with BacMam virus expressing ENaC alpha (BacMam viruses expressing SCNN1A, GRITS 29703, titre 0.356×10^8/ml). 30 ul of virus was added (1.7%) 20K/well, MOI was approximately 1. Cells were incubated for 24 hours. On day of the FLIPR assay, media was aspirated, leaving 10 ul volume. 20 ul of dye per well was loaded (FMP2 Blue dye, R8181, MDS. For each pot, 133 ml Tyrodes buffer was diluted to make 1× stock prior to assay). The plate was incubated for 0.5 hours at room temperature and 10 ul of the compound added on-line prior to FLIPR read (FLIPR settings: protocol Na MP.fcf, with Exposure length 0.4 sec and Filter #2). Compound plate: 1 ul volume, column 1, 2 and 3 are 16, 4 and 0 uM amiloride final (1/200 dilution) (IC80, IC50 and ctrl).

ENaC-alpha mRNA = ENaC-alpha mRNA knockdown in recombinant HEK cells of the FLIPR assay; assay type: cell-based, human; details: n = 6, mean of 3 independent experiments
Protocol: as §2, §3
RNA isolation 384 well Plate: Extract mRNA using Qiagen Turbo Capture RNA preparation kit, following manufacturer's instructions.
as §1

[1] = final siNA concentration 100 nM

Row | Substance | Maximum mRNA knockdown NHBEs (human ENaCα mRNA) [%] | EC50 (human ENaCα mRNA) [nM] | % Inhibition of Maximal Response (4 uM amiloride) (ENaC; final siNA concentration 10 nM) [%] | % Inhibition of Maximal Response (16 uM amiloride) (ENaC; final siNA concentration 10 nM) [%] | % Inhibition of Maximal Response (4 uM amiloride) (ENaC; final siNA concentration 20 nM) [%] | % Inhibition of Maximal Response (16 uM amiloride) (ENaC; final siNA concentration 20 nM) [%] | % Inhibition of Maximal Response (4 uM amiloride) (ENaC; final siNA concentration 50 nM) [%] | % Inhibition of Maximal Response (16 uM amiloride) (ENaC; final siNA concentration 50 nM) [%] | % Inhibition of Maximal Response (4 uM amiloride) (ENaC; [1]) [%] | % Inhibition of Maximal Response (16 uM amiloride) (ENaC; [1]) [%] | % ENaC-alpha mRNA knockdown (ENaC-alpha mRNA; final siNA concentration 10 nM) [%] | % ENaC-alpha mRNA knockdown (ENaC-alpha mRNA; final siNA concentration 20 nM) [%] | % ENaC-alpha mRNA knockdown (ENaC-alpha mRNA; final siNA concentration 50 nM) [%] | % ENaC-alpha mRNA knockdown (ENaC-alpha mRNA; [1]) [%]
1 | B GuGuGGcuGuGccuAcAuc TTB / GAUGuAGGcAcAGccAcAcUU (sense GUGUGGCUGUGCCUACAUCTT; antisense GAUGUAGGCACAGCCACACUU; siRNA; B caps on sense ends, letter-case modifications not given here, further chemistry not given here) [Site 1383] | 64 | 4.9 |  |  |  |  |  |  |  |  |  |  |  | 
2 | B uGuGcAAccAGAAcAAAuc TTB / GAUuuGuucuGGuuGcAcAUU (chain 1 UGUGCAACCAGAACAAAUCTT; chain 2 GAUUUGUUCUGGUUGCACAUU; siRNA; B caps on sense ends, letter-case modifications not given here, further chemistry not given here) [Site 782] | 79 | 0.47 | 37.1 | 40.8 | 41.4 | 47.9 | 52.5 | 59.7 | 81.5 | 85.2 | 61.7 | 67.7 | 75.1 | 73.1
3 | B GcuGuGccuAcAucuucuA TTB / UAGAAGAuGuAGGcAcAGcUU (sense GCUGUGCCUACAUCUUCUATT; antisense UAGAAGAUGUAGGCACAGCUU; siRNA; B caps on sense ends, letter-case modifications not given here, further chemistry not given here) [Site 1388] | 79 | 4.2 |  |  |  |  |  |  |  |  |  |  |  | 
4 | B uuAuGGAuGAuGGuGGcuu TTB / AAGccAccAucAuccAuAAUU (sense UUAUGGAUGAUGGUGGCUUTT; antisense AAGCCACCAUCAUCCAUAAUU; siRNA; B caps on sense ends, letter-case modifications not given here, further chemistry not given here) [Site 1181] | 78 | 1.59 | 43.8 | 45.8 | 48.9 | 51.4 | 62.2 | 65.5 | 77.5 | 77.5 | 52.6 | 65.6 | 76.1 | 76.9

Source: US20110288154A1, “RNA Interference Mediated Inhibition of Epithelial Sodium Channel (ENaC) Gene Expression Using Short Interfering Nucleic Acid (siNA)” (MERCK & CO., INC., priority 2008, published 2011)
